Assay results from PubChem BioAssay AID1963870 (Molecular Pharmacology Branch, DTP, NCI, 2024).

Test system: 292921-168-R-J2-PDC KRAS tumor spheroid viability
Assay: Anticancer human tumor 292921-168-R-J2-PDC patient-derived pancreatic carcinoma cell line growth inhibition [KRAS2]
Conditions: spheroids with HUVEC and MSC; for viability, T/C: stronger effect = lower value
Description: Multicellular complex tumor spheroid response to RAS pathway inhibitors in combination with a targeted agents in patient-derived cell lines with oncogenic KRAS variants from multiple cancer types
A high-throughput screen of multi-cell type tumor spheroids was designed to identify active combinations of targeted small molecules and KRAS pathway inhibitors. Complex spheroids include a stromal component modeled by human endothelial cells (HUVEC) and fibroblasts modeled by human mesenchymal stem cells (MSCs). The concentration ranges selected for each drug and investigational agent were based upon clinically achievable concentrations if the clinical Cmax of the agent was known.
Compounds. The drugs and investigational agents: BI-3406 (NSC825286), BAY-293 (NSC824723), batoprotafib (TNO155; NSC825523), sotorasib (AMG 510; NSC818433), MRTX1257 (NSC819558), elimusertib (BAY 1895344; NSC800525), molibresib (GSK525762; NSC774829), temuterkib (LY3214996; NSC803410), venetoclax (NSC766270), alisertib (NSC759677), olaparib (NSC753686), talazoparib (NSC767125), erdafitinib (NSC781556), ipatasertib (NSC767898), cabozantinib (NSC761068), nintedanib (NSC756659), abemaciclib (NSC768073), docetaxel (NSC628503), trametinib (NSC758246), and sapanisertib (NSC764658) were obtained from the National Cancer Institute (NCI) Developmental Therapeutics Program Chemical Repository. The FDA-approved anticancer drug set is available from the Developmental Therapeutics Program. […] The stock solutions were prepared in dimethyl sulfoxide (DMSO, Sigma-Aldrich, St. Louis, MO, cat. D2650) at 800-fold the tested concentration and stored at -70 degrees C prior to their use. All drugs and investigational agents were tested over a range starting from a high concentration at or near the clinical Cmax and decreasing in half-log increments. If the clinical Cmax for an agent had not been determined, the highest concentration tested was 10 microM.
Cell Culture. All cells were maintained in an incubator at 37 degrees C and 5% CO2 with 95% humidity. The PDC lines were cultured according to standard operating procedures established by the NCI PDMR (https://pdmr.cancer.gov/sops/default.htm). Briefly, all PDCs were thawed and cultured in Matrigel-coated flasks prepared with a working solution of 1X Ham's F-12 nutrient mix, without supplementation (Invitrogen, Waltham, MA, cat. 11765054), 100 U/mL penicillin-streptomycin (Invitrogen, cat. 15140122), and 2.5% Matrigel (Corning Inc., Corning, NY, cat. 354248) for the first three passages. All PDCs were cultured in complete DMEM/F-12 media containing advanced DMEM/F-12 (Invitrogen, cat. 12634028), 4.9% defined fetal bovine serum, heat inactivated (HyClone Laboratories Inc., Logan, UT, cat. SH30070.03HI), 389 ng/mL hydrocortisone (Sigma-Aldrich, cat. H4001), 9.7 ng/mL human EGF recombinant protein (Invitrogen, cat. PHG0313), 23.4 microg/mL adenine (Sigma-Aldrich, cat. A2786), 97.3 U/mL penicillin-streptomycin (Invitrogen, cat. 15140122), 1.9 mM L-glutamine (Invitrogen, cat. 25030081), and 9.7 microM Y-27632 dihydrochloride (Tocris Bioscience, Bristol, United Kingdom, cat. 1254). The PDCs were cultured in complete DMEM/F12 media without 9.7 microM Y-27632 dihydrochloride for at least two passages prior to the screen. The established cell line HOP-62 was cultured in RPMI 1640 medium, HEPES (Invitrogen, cat. 22400105) with 10% defined fetal bovine serum (HyClone Laboratories Inc., cat. SH30070.03) and 2 mM L-glutamine (Invitrogen, cat. 25030081). The pooled donor HUVEC were cultured in endothelial cell growth medium 2 (PromoCell, Heidelberg, Germany, cat. C-22011) and the hMSC were cultured in mesenchymal stem cell growth medium 2 (PromoCell, cat. C-28009). For all experiments, HUVEC and hMSC were used at passages </=5, while the malignant cell lines were used at passages </=15. […]

[1] = compound alone, run of 09/02/2021
[2] = curve of first compound, second compound 0.1 µM
[3] = curve of first compound, second compound 0.316 µM
[4] = curve of first compound, second compound 1 µM
[5] = curve of first compound, second compound 3.16 µM
[6] = curve of first compound, second compound 10 µM
[7] = second compound 0.1 µM, first compound 0.01 µM
[8] = second compound 0.1 µM, first compound 0.0316 µM
[9] = second compound 0.1 µM, first compound 0.1 µM
[10] = second compound 0.316 µM, first compound 0.01 µM
[11] = second compound 0.316 µM, first compound 0.0316 µM
[12] = second compound 0.316 µM, first compound 0.1 µM
[13] = second compound 1 µM, first compound 0.01 µM
[14] = second compound 1 µM, first compound 0.0316 µM
[15] = second compound 1 µM, first compound 0.1 µM
[16] = second compound 3.16 µM, first compound 0.01 µM
[17] = second compound 3.16 µM, first compound 0.0316 µM
[18] = second compound 3.16 µM, first compound 0.1 µM
[19] = second compound 10 µM, first compound 0.01 µM
[20] = second compound 10 µM, first compound 0.0316 µM
[21] = second compound 10 µM, first compound 0.1 µM
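Note: drug exposure lasted seven days after spheroids formed for three days.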
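Throughout, for viability, T/C: percent of DMSO vehicle control viability which is 100%.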

Structure (SMILES) | IC50 [1] | IC50 [2] [nM] | IC50 [3] [nM] | IC50 [4] [nM] | IC50 [5] [nM] | IC50 [6] [nM] | viability, T/C [7] [%] | viability, T/C [8] [%] | viability, T/C [9] [%] | viability, T/C [10] [%] | viability, T/C [11] [%] | viability, T/C [12] [%] | viability, T/C [13] [%] | viability, T/C [14] [%] | viability, T/C [15] [%] | viability, T/C [16] [%] | viability, T/C [17] [%] | viability, T/C [18] [%] | viability, T/C [19] [%] | viability, T/C [20] [%] | other results
C=CC(=O)N1CCN(c2nc(OCC3CCCN3C)nc3c2CCN(c2cccc4cccc(C)c24)C3)CC1CC#N (stereo not drawn) | 647 nM [middle of 5 runs] |  |  |  |  |  |  |  |  |  |  |  |  |  |  |  |  |  |  |  | IC50 (compound alone, run of 08/26/2021): 821 nM [middle of 5 runs]
COc1cc2nc(C)nc(NC(C)c3cc(N)cc(C(F)(F)F)c3)c2cc1OC1CCOC1 (stereo not drawn) | 4.36 µM [middle of 5 runs] |  |  |  |  |  |  |  |  |  |  |  |  |  |  |  |  |  |  |  | 
CC(=O)OC12COC1CC(O)C1(C)C(=O)C(O)C3=C(C)C(OC(=O)C(O)C(NC(=O)OC(C)(C)C)c4ccccc4)CC(O)(C(OC(=O)c4ccccc4)C21)C3(C)C (stereo not drawn) + C=CC(=O)N1CCN(c2nc(=O)n(-c3c(C)ccnc3C(C)C)c3nc(-c4c(O)cccc4F)c(F)cc23)C(C)C1 |  | < 10 | < 10 | < 10 | < 10 | < 10 | 14.6 | 15.4 | 14.2 | 12.9 | 17.1 | 13 | 17.1 | 17.5 | 14.9 | 18.1 | 18.2 | 16.9 | 20.5 | 18.4 | viability, T/C (second compound 0.1 µM, first compound 0.316 µM): 12.3%; viability, T/C (second compound 0.1 µM, first compound 1 µM): 14.5%; viability, T/C (second compound 0.1 µM, first compound 3.16 µM): 17.3%; viability, T/C (second compound 0.316 µM, first compound 0.316 µM): 13.1%; viability, T/C (second compound 0.316 µM, first compound 1 µM): 13.7%; viability, T/C (second compound 0.316 µM, first compound 3.16 µM): 18.3%; viability, T/C (second compound 1 µM, first compound 0.316 µM): 12.9%; viability, T/C (second compound 1 µM, first compound 1 µM): 14.4%; viability, T/C (second compound 1 µM, first compound 3.16 µM): 19.1%; viability, T/C (second compound 3.16 µM, first compound 0.316 µM): 15.7%; viability, T/C (second compound 3.16 µM, first compound 1 µM): 16.1%; viability, T/C (second compound 3.16 µM, first compound 3.16 µM): 17.9%; viability, T/C [21]: 16.6%; viability, T/C (second compound 10 µM, first compound 0.316 µM): 15.3%; viability, T/C (second compound 10 µM, first compound 1 µM): 15.7%; viability, T/C (second compound 10 µM, first compound 3.16 µM): 17.2%
CN(C)C/C=C/C(=O)Nc1cc2c(Nc3ccc(F)c(Cl)c3)ncnc2cc1O[C@H]1CCOC1 + C=CC(=O)N1CCN(c2nc(=O)n(-c3c(C)ccnc3C(C)C)c3nc(-c4c(O)cccc4F)c(F)cc23)C(C)C1 |  | > 100 | > 100 | > 100 | > 100 | < 0.316 | 86.2 | 95.3 | 76.5 | 104 | 96.4 | 89.4 | 90.7 | 101 | 87.2 | 71.9 | 68.4 | 53.5 | 23 | 20.9 | viability, T/C (second compound 0.1 µM, first compound 0.000316 µM): 119%; viability, T/C (second compound 0.1 µM, first compound 0.001 µM): 110%; viability, T/C (second compound 0.1 µM, first compound 0.00316 µM): 94%; viability, T/C (second compound 0.316 µM, first compound 0.000316 µM): 118%; viability, T/C (second compound 0.316 µM, first compound 0.001 µM): 114%; viability, T/C (second compound 0.316 µM, first compound 0.00316 µM): 104%; viability, T/C (second compound 1 µM, first compound 0.000316 µM): 117%; viability, T/C (second compound 1 µM, first compound 0.001 µM): 107%; viability, T/C (second compound 1 µM, first compound 0.00316 µM): 106%; viability, T/C (second compound 3.16 µM, first compound 0.000316 µM): 71.7%; viability, T/C (second compound 3.16 µM, first compound 0.001 µM): 67%; viability, T/C (second compound 3.16 µM, first compound 0.00316 µM): 66.6%; viability, T/C (second compound 10 µM, first compound 0.000316 µM): 29.3%; viability, T/C (second compound 10 µM, first compound 0.001 µM): 24.5%; viability, T/C (second compound 10 µM, first compound 0.00316 µM): 22.8%; viability, T/C [21]: 19.2%
